Results reported in ChEMBL document CHEMBL5360649, “Potential Broad-Spectrum Antimicrobial, Wound Healing, and Disinfectant Cationic Peptide Crafted from Snake Venom” (J Med Chem, 2023).
Calls of active or inactive are those of the source. The rule behind the calls is not given here.

What was measured:
[1] = tested on: Lipopolysaccharide (LPS); assay: Induction of Escherichia coli O111:B4 Lipopolysaccharide aggregate degradation at 40 uM incubated for 4 hrs by ESI-LC/MS analysis
[2] = tested on: NMDF; assay: Induction of cell migration in NMDF cells at 10 uM incubated for 24 hrs by wound healing scratch/mirgation assay; format: functional, cell-based; details: Mus musculus
[3] = tested on: Staphylococcus aureus; assay: Antibiofilm activity against preformed biofilm in methicillin-resistant Staphylococcus aureus assessed as decrease in cell viability at 0.5 times of MIC incubated overnight by MTT assay relative to control; format: functional
[4] = species on record: Rattus norvegicus; assay: Induction of wound healing in surgically-induced Albino Wistar rat wound model assessed as reduction in inflammatory signs at 10 uM measured after 11 days by H&E staining based analysis; format: functional; details: time 11.0 day
[5] = tested on: Klebsiella pneumoniae; assay: Antibacterial activity against Klebsiella pneumoniae assessed as cell division block by measuring cellular elongation at 0.5 to 1 times of MIC incubated for 30 mins by SYTO9/PI staining based fluorescence microscopic analysis; format: functional, organism-based
[6] = Cytotoxicity against human MCF7 cells assessed as cell viability at 25 uM incubated for 24 hrs by MTT assay relative to control; format: toxicity, cell-based; details: read-out: Activity
[7] = tested on: Klebsiella pneumoniae; assay: Induction of morphological changes in carbapenem resistant Klebsiella pneumoniae ATCC BAA-1705 at MIC concentration incubated for 6 hrs by AFM analysis; format: functional, organism-based
[8] = tested on: Klebsiella pneumoniae; assay: Antibiofilm activity against Klebsiella pneumoniae assessed as biofilm eradication at 0.5 times of MIC incubated for 24 hrs by CV staining based analysis relative to control; format: functional
[9] = tested on: Staphylococcus aureus; assay: Antibacterial activity against methicillin-resistant Staphylococcus aureus assessed as induction of cellular damage at MIC concentration incubated for 30 mins by SYTO9/PI staining based fluorescence microscopic analysis; format: functional, organism-based
[10] = tested on: Pseudomonas aeruginosa; assay: Antibiofilm activity against Pseudomonas aeruginosa assessed as clearance of preformed biofilm at 0.5 times of MIC incubated for 24 hrs by CV staining based analysis relative to control; format: functional
[11] = Stability in human serum assessed as intact peptide remaining at 1 mM measured after 24 hrs by HPLC analysis; format: ADME, cell-free; details: read-out: Stability
[12] = tested on: Pseudomonas aeruginosa; assay: Antibiofilm activity against Pseudomonas aeruginosa in the presence of Cl-; format: functional, organism-based
[13] = tested on: Staphylococcus aureus; assay: Induction of morphological changes in methicillin resistant Staphylococcus aureus assessed as decrease in legible cells at MIC concentration incubated for 6 hrs by AFM analysis; format: functional, organism-based
[14] = species on record: Rattus norvegicus; assay: Induction of wound healing in surgically-induced Albino Wistar rat wound model assessed as dense epithelial-tissue layers at 10 uM measured after 11 days by H&E staining based analysis; format: functional; details: time 11.0 day
[15] = tested on: U-937; assay: Immunomodulatory activity in human U-937 cells assessed as reduction in LPS-induced TNF-alpha expression level incubated for 24 hrs by radioimmunoprecipitation based dot-plot analysis; format: functional, cell-based; details: dose 5-10 µM
[16] = tested on: Klebsiella pneumoniae; assay: Antibiofilm activity against Klebsiella pneumoniae assessed as biofilm disintegration at 0.5 to 1 times of MIC incubated for 24 hrs by Congo red dye based fluorescence analysis; format: functional, organism-based
[17] = species on record: Rattus norvegicus; assay: Induction of wound healing in surgically-induced Albino Wistar rat wound model inoculated with methicillin-resistant Staphylococcus aureus assessed as sebaceous gland formation at 10 uM measured after 11 days by H&E staining based analysis; format: functional; details: time 11.0 day
[18] = tested on: Pseudomonas aeruginosa; assay: Induction of morphological changes in Pseudomonas aeruginosa assessed as inhibition of cell division by measuring elongated cells at MIC concentration incubated for 60 mins by SEM analysis; format: functional, organism-based
[19] = tested on: Cell membrane; assay: Induction of cytoplasmic membrane depolarization in methicillin-resistant Staphylococcus aureus assessed as increase in fluorescence intensity at 0.5 to 1 times of MIC by DiSC3-5 dye based fluorescence method; format: subcellular
[20] = Cytotoxicity against human MCF7 cells assessed as cell viability at 12.5 uM incubated for 24 hrs by MTT assay relative to control; format: toxicity, cell-based; details: read-out: Activity
[21] = tested on: U-937; assay: Immunomodulatory activity in human U-937 cells assessed as effect on TNF-alpha expression level at 5 to 10 uM incubated for 24 hrs by radioimmunoprecipitation based dot-plot analysis; format: functional, cell-based; details: dose 5-10 µM
[22] = tested on: RAW264.7; assay: Antiinflammatory activity in LPS-induced mouse RAW264.7 cells assessed as increase in TGF-beta1 expression at 5 to 10 uM incubated for 24 hrs by radioimmunoprecipitation based dot-plot analysis; format: functional, cell-based; details: dose 5-10 µM
[23] = Induction of wound healing in surgically-induced Albino Wistar rat wound model inoculated with methicillin-resistant Staphylococcus aureus assessed as decrease in mean open wound percentage at 10 uM measured after 11 days by photographic analysis (reference value: 32.25%); format: functional; parameters: scale not given: the % may be the effect or the level left; details: time 11 day
[24] = tested on: Pseudomonas aeruginosa; assay: Induction of morphological changes in Pseudomonas aeruginosa assessed as cellular destruction at MIC concentration incubated for 6 hrs by AFM analysis; format: functional, organism-based
[25] = tested on: Escherichia coli; assay: Induction of morphological changes in Escherichia coli assessed as cell blebbing at MIC concentration incubated for 60 mins by SEM analysis; format: functional, organism-based
[26] = tested on: Klebsiella pneumoniae; assay: Antibiofilm activity against Klebsiella pneumoniae assessed as biofilm clearance incubated for 24 hrs by Congo red dye based fluorescence analysis; format: functional, organism-based
[27] = tested on: Klebsiella pneumoniae; assay: Induction of morphological changes in carbapenem resistant Klebsiella pneumoniae ATCC BAA-1705 assessed as cellular destruction at MIC concentration incubated for 6 hrs by AFM analysis; format: functional, organism-based
[28] = tested on: Pseudomonas aeruginosa; assay: Antibacterial activity against Pseudomonas aeruginosa assessed as inhibition of bacterial growth incubated for 0.5 to 8.5 hrs by microtiter plate reader analysis; format: functional, organism-based; details: dose 1.25-40 µM, time 0.5-8.5 hrs
[29] = tested on: Pseudomonas aeruginosa; assay: Antibacterial activity against Pseudomonas aeruginosa assessed as induction of cellular damage at MIC concentration incubated for 30 mins by SYTO9/PI staining based fluorescence microscopic analysis; format: functional, organism-based
[30] = tested on: Staphylococcus aureus; assay: Induction of morphological changes in methicillin-resistant Staphylococcus aureus assessed as membrane damage at MIC concentration incubated for 60 mins by SEM analysis; format: functional, organism-based
[31] = tested on: Klebsiella pneumoniae; assay: Antibacterial activity against Klebsiella pneumoniae assessed as cell division block by measuring bacterial filamentation at 0.5 to 1 times of MIC incubated for 30 mins by SYTO9/PI staining based fluorescence microscopic analysis; format: functional, organism-based
[32] = Stability in human serum assessed as intact peptide remaining at 1 mM measured after 8 hrs by HPLC analysis; format: ADME, cell-free; details: read-out: Stability
[33] = tested on: Escherichia coli; assay: Induction of morphological changes in Escherichia coli assessed as decrease in legible cells at MIC concentration incubated for 6 hrs by AFM analysis; format: functional, organism-based
[34] = tested on: Staphylococcus aureus; assay: Antibiofilm activity against methicillin-resistant Staphylococcus aureus assessed as biofilm eradication at 1 times of MIC incubated for 24 hrs by CV staining based analysis relative to control; format: functional
[35] = Cytotoxicity against mouse RAW264.7 cells assessed as cell viability at 12.5 uM incubated for 24 hrs by MTT assay relative to control; format: toxicity, cell-based; details: read-out: Activity
[36] = Cytotoxicity against human WI-38 cells assessed as cell viability at 25 uM incubated for 24 hrs by MTT assay relative to control; format: toxicity, cell-based; details: read-out: Activity
[37] = tested on: Klebsiella pneumoniae; assay: Induction of morphological changes in carbapenem resistant Klebsiella pneumoniae ATCC BAA-1705 at MIC concentration incubated for 6 hrs by SEM analysis; format: functional, organism-based
[38] = tested on: Escherichia coli; assay: Antibiofilm activity against Escherichia coli in the presence of Na+; format: functional, organism-based
[39] = tested on: RAW264.7; assay: Antiinflammatory activity in mouse RAW264.7 cells assessed as increase in TGF-beta1 expression at 10 uM incubated for 24 hrs by radioimmunoprecipitation based dot-plot analysis; format: functional, cell-based

Substance: H-FLPIIKWVKKFFWRWR-OH
- Activity [1]: Active
- Activity [2]: Active
- Activity [3]: 62.7%
- Activity [4]: Active
- Activity [5]: Active
- viability at 24 h, 25 µM [6]: 63.8%
- Activity [7]: Active
- Activity [8]: ~62%
- Activity [9]: Active
- Activity [10]: ~53%
- remaining at 24 h, 1000 µM [11]: 47.1%
- Activity [12]: Active
- Activity [13]: Active
- Activity [14]: Active
- Activity [15]: Dose-Dependent Effect
- Activity [16]: Active
- Activity [17]: Active
- Activity [18]: Active
- Activity [19]: Active
- viability at 24 h, 12.5 µM [20]: 77%
- Activity [21]: Active
- Activity [22]: Active
- Activity [23]: 17.22%
- Activity [24]: Active
- Activity [25]: Active
- Activity [26]: Dose-Dependent Effect
- Activity [27]: Active
- Activity [28]: Dose-Dependent Effect
- Activity [29]: Active
- Activity [30]: Active
- Activity [31]: Active
- remaining at 8 h, 1000 µM [32]: 61%
- Activity [33]: Active
- Activity [34]: <=87.6%
- viability at 24 h, 12.5 µM [35]: > 90%
- viability at 24 h, 25 µM [36]: 88.3%
- Activity [37]: Active
- Activity [38]: Active
- Activity [39]: Active
